Test in all cases: In vitro antimicrobial activity, MIC by broth microdilution (CLSI)
Holding throughout (format): cell-based
In general terms: Dilution methods test growth across graded concentrations, often in twofold steps.

For assay [1], the system named is K. pneumoniae SR01358. As to conditions: KPC-2, ESBL and KPC-type carbapenemase producing strain, 5×10^5 cfu/mL, cation-adjusted Iso-Sensitest broth containing human Apo-transferrin; for MIC: Klebsiella pneumoniae, SR01358, read-out: Minimum Inhibitory Concentration (MIC) K. pneumoniae SR01358. On the procedure:
(§1) Compound (I) of the invention was evaluated for in vitro antimicrobial activity thereof.
(§2) Measurement of Minimum Inhibitory Concentration (MIC: μg/mL) was conducted according to CLSI (Clinical and Laboratory Standards Institute) method, and the amount of bacteria for inoculation was 5×10^5 cfu/mL, and cation-adjusted Iso-Sensitest broth containing human Apo-transferrin was used as a test medium, and the experiment was conducted using broth microdilution method. The bacteria used are listed below.

Assay [2] relates to E. Coli JMI1890. As to conditions: PER-1, TEM-1, ESBL producing strain, 5×10^5 cfu/mL, cation-adjusted Iso-Sensitest broth containing human Apo-transferrin; for MIC: Escherichia coli, read-out: Minimum Inhibitory Concentration (MIC) E. Coli JMI:1890. On the procedure: as §1, §2
For assay [3], the system named is A. baumannii JMI7. As to conditions: PER-1, OXA-23, 51, ESBL and OXA-type carbapenemase producing strain, 5×10^5 cfu/mL, cation-adjusted Iso-Sensitest broth containing human Apo-transferrin; for MIC: Acinetobacter baumannii, JMI7, read-out: Minimum Inhibitory Concentration (MIC) A. baumannii JMI:7. Here is the method: as §1, §2
Assay [4] has as its system A. baumannii JMI2346. Particulars: OXA-51, TEM, ESBL and OXA-type carbapenemase producing strain, 5×10^5 cfu/mL, cation-adjusted Iso-Sensitest broth containing human Apo-transferrin; for MIC: Acinetobacter baumannii, JMI2346, read-out: Minimum Inhibitory Concentration (MIC) A. baumannii JMI:2346. Here is the method: as §1, §2

SMILES strings stand for the structures. Values after ≈ are worked out from the molar mass of the structure shown.

For `C[C@@H]1S[C@@H]2[C@H](NC(=O)/C(=N\OC(C)(C)C(=O)[O-])c3csc(N)n3)C(=O)N2C(C(=O)[O-])=C1C[N+]12CCC(CC1)N(C(=O)c1ccc(O)c(O)c1Cl)CC2.[Na+]` [Compound I-62], the MIC in assay [1] was no more than 0.031 µg/mL; in assay [2], 0.063 µg/mL; in assay [3], 0.5 µg/mL; in assay [4] it was 2 µg/mL.

For `C[C@@H]1S[C@@H]2[C@H](NC(=O)/C(=N\OC(C)(C)C(=O)[O-])c3csc(N)n3)C(=O)N2C(C(=O)O)=C1C[N@+]1(C)[C@@H]2CC[C@H]1C[C@@H](NC(=O)c1ccc(O)c(O)c1Cl)C2` [Compound I-54], the MIC was no more than 0.031 µg/mL in assay [1], 0.125 µg/mL (≈ 0.158 µM) in assay [2], 0.5 µg/mL (≈ 0.631 µM) in assay [3] and 1 µg/mL (≈ 1.26 µM) in assay [4].

As for `C[C@@H]1S[C@@H]2[C@H](NC(=O)/C(=N\OC(C)(C)C(=O)[O-])c3csc(N)n3)C(=O)N2C(C(=O)O)=C1C[N+]12CCC(CNC(=O)c3ccc(O)c(O)c3Cl)(CC1)C2` [Compound I-100], the MIC in assay [1] was 0.063 µg/mL (≈ 0.0809 µM); in assay [2], 0.125 µg/mL (≈ 0.161 µM); in assay [3] it was 0.5 µg/mL (≈ 0.642 µM); in assay [4] it was 1 µg/mL (≈ 1.28 µM).

Take `C[C@@H]1S[C@@H]2[C@H](NC(=O)/C(=N\OC(C)(C)C(=O)[O-])c3csc(N)n3)C(=O)N2C(C(=O)O)=C1C[N+]12CCC(CNC(=O)/C(=N\O)c3ccc(O)c(O)c3)(CC1)CC2` [Compound I-92]: the MIC in assay [1] amounted to 0.125 µg/mL (≈ 0.156 µM); in assay [2], 2 µg/mL (≈ 2.5 µM); in assay [3], 4 µg/mL (≈ 4.99 µM); in assay [4], 16 µg/mL (≈ 20 µM).

For the compound `C[C@@H]1S[C@@H]2[C@H](NC(=O)/C(=N\OC(C)(C)C(=O)[O-])c3csc(N)n3)C(=O)N2C(C(=O)[O-])=C1C[N+]12CCC(CC1)N(C(=O)c1cc(O)c(O)c(F)c1)CC2.[Na+]` [Compound I-67], the MIC in assay [1] is no more than 0.031 µg/mL; in assay [2], 0.25 µg/mL; in assay [3], 1 µg/mL; in assay [4], 2 µg/mL.

With `C[C@@H]1S[C@@H]2[C@H](NC(=O)/C(=N\O[C@@H](CC(=O)[O-])C(=O)[O-])c3csc(N)n3)C(=O)N2C(C(=O)[O-])=C1C[N@+]12CCC[C@H]1CN(C(=O)C(=O)c1cc(O)c(O)c(Cl)c1)CC2.[Na+].[Na+]` [Compound I-11], the MIC in assay [1] worked out at 0.063 µg/mL; in assay [2], 2 µg/mL; in assay [3], 2 µg/mL; in assay [4], 16 µg/mL.

In the case of `C[C@@H]1S[C@@H]2[C@H](NC(=O)/C(=N\OC(C)(C)C(=O)[O-])c3csc(N)n3)C(=O)N2C(C(=O)O)=C1C[N@+]1(C)[C@@H]2CC[C@H]1C[C@@H](NC(=O)c1cn(C3CC3)c3cc(O)c(O)c(Cl)c3c1=O)C2` [Compound I-120], the MIC in assay [1] was no more than 0.031 µg/mL; in assay [2], 0.063 µg/mL (≈ 0.07 µM); in assay [3], 0.5 µg/mL (≈ 0.556 µM); in assay [4], 2 µg/mL (≈ 2.22 µM).

On to `C[C@@H]1S[C@@H]2[C@H](NC(=O)/C(=N\OC(C)(C)C(=O)[O-])c3csc(N)n3)C(=O)N2C(C(=O)O)=C1C[N+]12CCC(CNC(=O)/C(=N\OCC(=O)O)c3ccc(O)c(O)c3Cl)(CC1)CC2` [Compound I-98], for which the MIC in assay [1] is no more than 0.031 µg/mL; in assay [2], 0.063 µg/mL (≈ 0.0705 µM); in assay [3] it was 0.5 µg/mL (≈ 0.56 µM); in assay [4], 4 µg/mL (≈ 4.48 µM).

For the compound `C[C@@H]1S[C@@H]2[C@H](NC(=O)/C(=N\OC(C)(C)C(=O)[O-])c3csc(N)n3)C(=O)N2C(C(=O)[O-])=C1C[N+]1(C)[C@@H]2CC[C@H]1C[C@@H](NC(=O)c1cc(O)c(O)c(F)c1)C2.[Na+]` (stereo partly drawn) [Compound I-71], the MIC is no more than 0.031 µg/mL in assay [1], 0.25 µg/mL in assay [2], 0.5 µg/mL in assay [3] and 2 µg/mL in assay [4].

In the case of `C[C@@H]1S[C@@H]2[C@H](NC(=O)/C(=N\OC(C)(C)C(=O)[O-])c3csc(N)n3)C(=O)N2C(C(=O)O)=C1C[N+]12CCC(CNC(=O)/C(=N\O)c3ccc(O)c(O)c3Cl)(CC1)CC2` [Compound I-94], the MIC in assay [1] stood at 0.063 µg/mL (≈ 0.0754 µM); in assay [2] it was 0.5 µg/mL (≈ 0.599 µM); in assay [3] it was 1 µg/mL (≈ 1.2 µM); in assay [4], 4 µg/mL (≈ 4.79 µM).

As for `C[C@@H]1S[C@@H]2[C@H](NC(=O)/C(=N\OC(C)(C)C(=O)[O-])c3csc(N)n3)C(=O)N2C(C(=O)O)=C1C[N+]12CCC(CNC(=O)/C(=N\O)c3ccc(O)c(O)c3Cl)(CC1)C2` [Compound I-102], the MIC in assay [1] was no more than 0.031 µg/mL; in assay [2] it was 0.125 µg/mL (≈ 0.152 µM); in assay [3], 0.5 µg/mL (≈ 0.609 µM); in assay [4], 2 µg/mL (≈ 2.44 µM).

Regarding `C[C@@H]1S[C@@H]2[C@H](NC(=O)/C(=N\OC(C)(C)C(=O)[O-])c3csc(N)n3)C(=O)N2C(C(=O)O)=C1C[N+]12CCC(CC1)N(C(=O)/C(=N\O)c1ccc(O)c(O)c1Cl)CC2` [Compound I-137], the MIC in assay [1] is no more than 0.031 µg/mL; in assay [2] it was 0.25 µg/mL (≈ 0.304 µM); in assay [3] it was 0.5 µg/mL (≈ 0.609 µM); in assay [4], 2 µg/mL (≈ 2.44 µM).

`C[C@@H]1S[C@@H]2[C@H](NC(=O)/C(=N\O[C@@H](CC(=O)[O-])C(=O)[O-])c3csc(N)n3)C(=O)N2C(C(=O)[O-])=C1C[N+]12CCC(CC1)N(C(=O)C(=O)c1cc(O)c(O)c(Cl)c1)CC2.[Na+].[Na+]` [Compound I-17]: the MIC in assay [1] was no more than 0.031 µg/mL; in assay [2], 2 µg/mL; in assay [3], 4 µg/mL; in assay [4], 16 µg/mL.

Take `C[C@@H]1S[C@@H]2[C@H](NC(=O)/C(=N\OC(C)(C)C(=O)[O-])c3csc(N)n3)C(=O)N2C(C(=O)[O-])=C1C[N+]1(CCN2C(=O)c3cc(O)c(O)cc3C2=O)CCCC1.[Na+]` [Compound I-1]: the MIC was no more than 0.031 µg/mL in assay [1], 1 µg/mL in assay [2], 1 µg/mL in assay [3] and 16 µg/mL in assay [4].

With `C[C@@H]1S[C@@H]2[C@H](NC(=O)/C(=N\OC(C)(C)C(=O)[O-])c3csc(N)n3)C(=O)N2C(C(=O)O)=C1C[N+]1(CCN2C(=O)c3ccc(O)c(O)c3C2=O)CCCC1` [Compound I-51], the MIC in assay [1] was 0.125 µg/mL (≈ 0.165 µM); in assay [2], 0.5 µg/mL (≈ 0.66 µM); in assay [3] it was 2 µg/mL (≈ 2.64 µM); in assay [4], 8 µg/mL (≈ 10.6 µM).

Regarding `CO/N=C(\C(=O)NCC12CC[N+](CC3=C(COO)N4C(=O)[C@@H](NC(=O)/C(=N\OC(C)(C)C(=O)[O-])c5csc(N)n5)[C@H]4S[C@H]3C)(CC1)CC2)c1cc(O)c(O)c(Cl)c1` [Compound I-131], the “Minimum Inhibitory Concentration (MIC) K. pneumoniae SR01358” value in assay [1] amounted to 0.063 µg/mL. Besides, the “Minimum Inhibitory Concentration (MIC) E. Coli JMI:1890” value in assay [2] was 0.125 µg/mL. Besides, the “Minimum Inhibitory Concentration (MIC) A. baumannii JMI:7” value in assay [3] was 2 µg/mL. Also, in assay [4], the “Minimum Inhibitory Concentration (MIC) A. baumannii JMI:2346” value was 2 µg/mL.

For the compound `C[C@@H]1S[C@@H]2[C@H](NC(=O)/C(=N\OC(C)(C)C(=O)O)c3csc(N)n3)C(=O)N2C(C(=O)[O-])=C1C[N+]12CCC(Cn3ncc4cc(O)c(O)c(Cl)c4c3=O)(CC1)CC2` [Compound I-125], the MIC is no more than 0.031 µg/mL in assay [1], 0.125 µg/mL (≈ 0.153 µM) in assay [2], 0.5 µg/mL (≈ 0.612 µM) in assay [3] and 8 µg/mL (≈ 9.79 µM) in assay [4].

On to `C[C@@H]1S[C@@H]2[C@H](NC(=O)/C(=N\OC(C)(C)C(=O)[O-])c3csc(N)n3)C(=O)N2C(C(=O)[O-])=C1C[N@+]1(C)[C@@H]2CC[C@H]1C[C@@H](NC(=O)C(=O)c1cc(O)c(O)c(F)c1)C2.[Na+]` [Compound I-83], for which the MIC in assay [1] is no more than 0.031 µg/mL; in assay [2] it was 0.063 µg/mL; in assay [3] it was 0.5 µg/mL; in assay [4] it was 2 µg/mL.

Take `C[C@@H]1S[C@@H]2[C@H](NC(=O)/C(=N\OC(C)(C)C(=O)[O-])c3csc(N)n3)C(=O)N2C(C(=O)O)=C1C[N+]12CCC(Cn3[nH]c(=O)c4cc(O)c(O)cc4c3=O)(CC1)CC2` [Compound I-122]: the MIC in assay [1] is no more than 0.031 µg/mL; in assay [2], 0.25 µg/mL (≈ 0.313 µM); in assay [3], 0.5 µg/mL (≈ 0.626 µM); in assay [4], 2 µg/mL (≈ 2.5 µM).

Regarding `C[C@@H]1S[C@@H]2[C@H](NC(=O)/C(=N\OC(C)(C)C(=O)[O-])c3csc(N)n3)C(=O)N2C(C(=O)O)=C1C[N+]12CCC(CNC(=O)/C(=N\O)c3cc(O)c(O)c(F)c3)(CC1)CC2` [Compound I-136], the MIC in assay [1] was no more than 0.031 µg/mL; in assay [2], 0.5 µg/mL (≈ 0.611 µM); in assay [3], 1 µg/mL (≈ 1.22 µM); in assay [4], 2 µg/mL (≈ 2.44 µM).

For `C[C@@H]1S[C@@H]2[C@H](NC(=O)/C(=N\OC(C)(C)C(=O)[O-])c3csc(N)n3)C(=O)N2C(C(=O)[O-])=C1C[N+]12CCC(CNC(=O)C(=O)c3ccc(O)c(O)c3)(CC1)CC2.[Na+]` [Compound I-107], the MIC in assay [1] is no more than 0.031 µg/mL; in assay [2], 0.5 µg/mL; in assay [3], 2 µg/mL; in assay [4] it was 4 µg/mL.
